In ChEMBL document CHEMBL1201862, “PubChem BioAssay data set” (2004):
The source made the active and inactive calls. Cut-off read from the data, not from the text of the source: actives have a measured IC50 and inactives only a lower limit.

Target: Envelope glycoprotein gp160 (Human immunodeficiency virus 1, UniProt Q6QLK5)
Assay: cell-free HIV fusion peptide-binding blockers – biochemical, uHTS, fluorescence dequenching, […] (AID 1986)

Chain of Envelope glycoprotein gp160 (Q6QLK5 whole entry, the tested form may be a part): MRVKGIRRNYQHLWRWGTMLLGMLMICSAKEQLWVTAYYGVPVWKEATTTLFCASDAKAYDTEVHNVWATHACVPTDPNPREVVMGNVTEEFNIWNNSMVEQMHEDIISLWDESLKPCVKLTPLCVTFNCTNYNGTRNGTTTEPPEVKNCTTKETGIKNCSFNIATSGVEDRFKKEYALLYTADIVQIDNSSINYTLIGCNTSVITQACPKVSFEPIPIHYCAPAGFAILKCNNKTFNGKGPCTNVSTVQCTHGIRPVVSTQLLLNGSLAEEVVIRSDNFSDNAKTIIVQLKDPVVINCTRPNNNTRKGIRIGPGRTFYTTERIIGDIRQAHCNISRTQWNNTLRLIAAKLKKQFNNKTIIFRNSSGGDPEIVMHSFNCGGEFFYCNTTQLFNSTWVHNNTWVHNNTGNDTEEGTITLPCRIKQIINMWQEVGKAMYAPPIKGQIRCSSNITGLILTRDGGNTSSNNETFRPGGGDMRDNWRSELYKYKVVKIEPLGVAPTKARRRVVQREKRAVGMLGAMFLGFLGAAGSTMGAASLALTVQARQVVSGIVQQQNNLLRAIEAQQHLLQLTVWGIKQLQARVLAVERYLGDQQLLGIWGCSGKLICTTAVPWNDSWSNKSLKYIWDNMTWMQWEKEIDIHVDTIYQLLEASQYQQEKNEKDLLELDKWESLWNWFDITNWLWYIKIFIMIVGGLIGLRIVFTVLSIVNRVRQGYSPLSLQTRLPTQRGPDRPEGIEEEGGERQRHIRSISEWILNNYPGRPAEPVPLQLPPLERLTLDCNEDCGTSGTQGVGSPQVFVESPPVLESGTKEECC

O=C(O)c1[nH]c2ccccc2c1C(c1c(F)cccc1Cl)c1c(C(=O)O)[nH]c2ccccc12
IC50: 13.4 µM (active)

Cc1nn(CCc2nn[nH]n2)c2nc(-c3ccc(C4CCCCC4)cc3)cc(C(F)(F)F)c12
IC50: 12.4 µM (active)
